{"source": "patent US20230272448A1", "about": "“AN IMPROVED SUBSTRATE COCKTAIL ASSAY FOR HIGH-THROUGHPUT SCREENING OF CYTOCHROME P450 INHIBITORS” (priority 2020, published 2023)", "key": {"[1]": {"molecular_target": "T1, CYP2B6 (Homo sapiens, UniProt P20813)", "T1 sequence (P20813 1-491)": "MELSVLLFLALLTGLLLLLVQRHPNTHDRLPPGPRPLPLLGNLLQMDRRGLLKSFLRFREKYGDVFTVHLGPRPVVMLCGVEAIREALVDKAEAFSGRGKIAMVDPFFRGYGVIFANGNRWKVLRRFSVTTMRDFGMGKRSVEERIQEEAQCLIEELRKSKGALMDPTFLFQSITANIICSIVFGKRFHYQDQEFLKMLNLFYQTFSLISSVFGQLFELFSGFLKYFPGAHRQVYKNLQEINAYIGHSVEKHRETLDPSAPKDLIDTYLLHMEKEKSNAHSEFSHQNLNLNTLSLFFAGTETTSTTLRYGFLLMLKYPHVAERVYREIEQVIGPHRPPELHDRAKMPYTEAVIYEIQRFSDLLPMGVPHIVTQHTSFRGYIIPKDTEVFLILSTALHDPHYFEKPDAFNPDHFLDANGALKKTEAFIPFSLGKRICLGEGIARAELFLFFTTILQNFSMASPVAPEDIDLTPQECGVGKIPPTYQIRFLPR", "details": "literature reported Km; metabolite hydroxyl-bupropion; cited from earlier work"}, "[2]": {"molecular_target": "T2, CYP2A6 (Homo sapiens, UniProt P11509)", "T2 sequence (P11509 1-494)": "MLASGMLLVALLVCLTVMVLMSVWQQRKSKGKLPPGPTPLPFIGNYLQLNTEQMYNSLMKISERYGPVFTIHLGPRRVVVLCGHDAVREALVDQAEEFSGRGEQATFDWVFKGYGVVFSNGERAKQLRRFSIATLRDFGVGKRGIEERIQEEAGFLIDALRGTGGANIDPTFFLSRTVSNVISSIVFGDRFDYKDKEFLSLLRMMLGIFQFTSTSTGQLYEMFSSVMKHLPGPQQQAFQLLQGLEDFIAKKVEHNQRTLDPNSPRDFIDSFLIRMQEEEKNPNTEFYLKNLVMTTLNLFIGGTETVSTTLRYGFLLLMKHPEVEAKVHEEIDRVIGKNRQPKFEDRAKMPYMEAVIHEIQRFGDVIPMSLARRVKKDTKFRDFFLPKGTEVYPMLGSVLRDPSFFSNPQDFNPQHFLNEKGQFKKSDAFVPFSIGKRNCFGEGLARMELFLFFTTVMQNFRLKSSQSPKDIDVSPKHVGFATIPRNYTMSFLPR", "details": "literature reported Km; metabolite hydroxyl-coumarine; cited from earlier work"}, "[3]": {"molecular_target": "CYP2C9 (Homo sapiens, UniProt P11712)", "sequence (P11712 whole entry)": "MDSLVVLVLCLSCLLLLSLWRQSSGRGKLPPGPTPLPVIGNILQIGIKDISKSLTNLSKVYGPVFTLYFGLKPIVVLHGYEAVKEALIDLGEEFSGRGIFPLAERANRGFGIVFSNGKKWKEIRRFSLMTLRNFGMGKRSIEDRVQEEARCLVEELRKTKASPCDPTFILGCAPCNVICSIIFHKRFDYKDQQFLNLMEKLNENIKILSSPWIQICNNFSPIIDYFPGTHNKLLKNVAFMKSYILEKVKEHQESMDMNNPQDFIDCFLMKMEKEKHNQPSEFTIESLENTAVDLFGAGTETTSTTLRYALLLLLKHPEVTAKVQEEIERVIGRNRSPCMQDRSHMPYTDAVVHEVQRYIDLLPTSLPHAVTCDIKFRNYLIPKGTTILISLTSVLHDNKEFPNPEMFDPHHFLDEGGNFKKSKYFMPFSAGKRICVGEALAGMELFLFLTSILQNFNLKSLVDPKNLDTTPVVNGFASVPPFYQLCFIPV", "details": "literature reported Km; metabolite hydroxyl-diclofenac; cited from earlier work"}, "[4]": {"molecular_target": "T3, CYP2C8 (Homo sapiens, UniProt P10632)", "T3 sequence (P10632 1-490)": "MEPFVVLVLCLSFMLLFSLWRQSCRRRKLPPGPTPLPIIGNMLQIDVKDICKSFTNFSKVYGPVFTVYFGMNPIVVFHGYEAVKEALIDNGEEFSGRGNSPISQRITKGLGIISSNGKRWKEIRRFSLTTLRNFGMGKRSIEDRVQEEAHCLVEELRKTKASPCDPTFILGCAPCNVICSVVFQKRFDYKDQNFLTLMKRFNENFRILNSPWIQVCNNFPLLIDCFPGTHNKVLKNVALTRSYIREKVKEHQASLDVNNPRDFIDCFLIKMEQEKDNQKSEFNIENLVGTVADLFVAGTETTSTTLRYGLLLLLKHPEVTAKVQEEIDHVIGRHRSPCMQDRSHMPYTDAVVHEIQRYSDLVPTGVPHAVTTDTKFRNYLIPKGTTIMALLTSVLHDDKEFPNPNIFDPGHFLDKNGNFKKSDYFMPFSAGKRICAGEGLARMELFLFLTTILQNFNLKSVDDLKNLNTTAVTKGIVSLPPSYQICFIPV", "assay": "Single substrate (individual) CYP inhibition assay in human liver microsomes, LC-MS/MS", "details": "read-out: Single Substrate IC50; substrate Paclitaxel 5 μM; HLM 0.2 mg/mL; 30 min; n = 4"}, "[5]": {"molecular_target": "T3, CYP2C8", "details": "literature reported Km; metabolite 6-alpha hydroxyl-paclitaxel; cited from earlier work"}, "[6]": {"molecular_target": "T1, CYP2B6", "details": "reported; cited from earlier work"}, "[7]": {"molecular_target": "T4, CYP3A4 (Homo sapiens, UniProt P08684)", "T4 sequence (P08684 whole entry)": "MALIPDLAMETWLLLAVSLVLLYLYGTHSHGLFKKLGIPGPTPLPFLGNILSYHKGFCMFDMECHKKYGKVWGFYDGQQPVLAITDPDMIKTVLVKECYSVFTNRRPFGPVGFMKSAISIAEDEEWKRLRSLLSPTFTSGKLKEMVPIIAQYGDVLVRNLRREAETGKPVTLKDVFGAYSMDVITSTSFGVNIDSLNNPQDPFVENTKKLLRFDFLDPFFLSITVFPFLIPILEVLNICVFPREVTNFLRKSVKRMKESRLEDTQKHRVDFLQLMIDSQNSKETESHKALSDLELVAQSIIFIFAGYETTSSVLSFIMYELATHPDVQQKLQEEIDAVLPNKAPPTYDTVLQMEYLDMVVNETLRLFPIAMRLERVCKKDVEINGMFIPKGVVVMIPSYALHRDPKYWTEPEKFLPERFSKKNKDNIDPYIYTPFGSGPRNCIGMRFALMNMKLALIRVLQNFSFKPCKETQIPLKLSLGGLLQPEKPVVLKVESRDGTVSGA", "details": "reported; cited from earlier work"}, "[8]": {"molecular_target": "T4, CYP3A4", "details": "literature reported Km; metabolite hydroxyl-testosterone; cited from earlier work"}}}
{"smiles": "CC(NC(C)(C)C)C(=O)c1cccc(Cl)c1", "note": "(centres unmarked) [Bupropion]", "values": [{"measurement": "Km", "setting": "[1]", "value": "103 ± 7.65", "unit": "µM"}]}
{"smiles": "O=c1ccc2ccccc2o1", "note": "[Coumarin]", "values": [{"measurement": "Km", "setting": "[2]", "value": "1.17 ± 0.118", "unit": "µM"}]}
{"smiles": "O=C(O)Cc1ccccc1Nc1c(Cl)cccc1Cl", "note": "[Diclofenac]", "values": [{"measurement": "Km", "setting": "[3]", "value": "22 ± 11", "unit": "µM"}]}
{"smiles": "CC(C)(O)c1ccccc1CC[C@@H](SCC1(CC(=O)O)CC1)c1cccc(/C=C/c2ccc3ccc(Cl)cc3n2)c1", "note": "[Montelukast]", "values": [{"measurement": "IC50", "setting": "[4]", "value": 521, "unit": "nM"}]}
{"smiles": "CC(=O)O[C@H]1C(=O)[C@@]2(C)[C@H]([C@H](OC(=O)c3ccccc3)[C@]3(O)C[C@H](OC(=O)[C@H](O)[C@@H](NC(=O)c4ccccc4)c4ccccc4)C(C)=C1C3(C)C)[C@]1(OC(C)=O)CO[C@@H]1C[C@@H]2O", "note": "[Paclitaxel]", "values": [{"measurement": "Km", "setting": "[5]", "value": "11.5 ± 7.5", "unit": "µM"}]}
{"smiles": "CCOc1ccc(NC(C)=O)cc1", "note": "[Phenacetin]", "values": [{"measurement": "Inhibition of CYP2B6 by probe substrate", "setting": "[6]", "value": "weakly inhibit"}, {"measurement": "Inhibition of CYP3A4 by probe substrate", "setting": "[7]", "value": "weakly inhibit"}]}
{"smiles": "C[C@]12CC[C@H]3[C@@H](CCC4=CC(=O)CC[C@@]43C)[C@@H]1CC[C@@H]2O", "note": "[Testosterone]", "values": [{"measurement": "Km", "setting": "[8]", "value": "48.5 ± 3.75", "unit": "µM"}]}
